Molecular target: T1, MAD2L1 (T24 cells; MAD2L1WT and mutants reconstituted in MAD2L1‐KD T24 cells) (Homo sapiens, UniProt Q13257)
T1 construct: MAD2L1 in human T24 cells: native, or WT / mutants re-expressed by lentivirus in knockdown cells; Western blot read-out
Assay: streptavidin pull-down, Western blot and MS
Type: biochemical
Settings: labelled compound; T24 lysate, 4 °C; competed by excess unlabelled A2

T1 sequence (Q13257 2-205, change not shown): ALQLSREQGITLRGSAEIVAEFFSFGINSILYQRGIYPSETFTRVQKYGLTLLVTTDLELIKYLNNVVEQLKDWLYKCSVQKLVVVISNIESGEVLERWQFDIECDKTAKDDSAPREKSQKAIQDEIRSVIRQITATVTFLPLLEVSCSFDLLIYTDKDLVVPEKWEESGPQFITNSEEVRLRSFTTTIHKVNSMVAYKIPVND

CCc1c2c(nc3cccc(F)c13)-c1cc3c(c(=O)n1C2)COC(=O)[C@@]3(CC)OC(=O)CCCC[C@@H]1SC[C@@H]2NC(=O)N[C@@H]21 [A2‐biotin]
streptavidin pull-down, Western blot and MS: pull‐down/Western blot analysis demonstrated that A2‐biotin directly binds to MAD2L1

— article PMC12822473, “A Novel FGFR3‐Targeting Antibody‐Drug Conjugate Induces Tumor Cell Apoptosis through the cGAS–STING Pathway in Bladder Cancer” (Advanced Science, 2025)
